Measurements as given in ChEMBL document CHEMBL1909514, “Imidazo[2,1-b]thiazole guanylhydrazones as RSK2 inhibitors” (Eur J Med Chem, 2011).
pIC50: −log10 of the molar value.

Assays:
[1] = test system: A549; test: Growth inhibition of human A549 cells after 48 hrs by SRB assay; assay type: functional; conditions: A549, 48 h
[2] = target: T1, Serine/threonine-protein kinase Chk1 (Homo sapiens, UniProt O14757)
T1 sequence (O14757 whole entry): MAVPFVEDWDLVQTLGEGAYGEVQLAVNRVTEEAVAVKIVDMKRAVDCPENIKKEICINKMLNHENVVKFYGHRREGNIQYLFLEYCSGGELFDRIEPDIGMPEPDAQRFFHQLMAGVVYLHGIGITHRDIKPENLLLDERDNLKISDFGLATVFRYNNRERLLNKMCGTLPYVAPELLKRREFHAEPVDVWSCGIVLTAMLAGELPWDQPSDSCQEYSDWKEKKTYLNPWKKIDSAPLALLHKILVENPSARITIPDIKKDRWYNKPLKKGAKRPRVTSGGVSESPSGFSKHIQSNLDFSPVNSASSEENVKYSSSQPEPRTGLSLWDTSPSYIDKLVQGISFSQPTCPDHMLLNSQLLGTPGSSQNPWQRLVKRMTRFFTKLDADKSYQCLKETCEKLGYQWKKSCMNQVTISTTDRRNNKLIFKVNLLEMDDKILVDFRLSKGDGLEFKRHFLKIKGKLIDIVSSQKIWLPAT
Description: Inhibition of CHK1 assessed as inhibition of substrate phosphorylation using fluorescent peptide substrate by microplate reader assay

[3] = target: Ribosomal protein S6 kinase alpha-3 (Homo sapiens, UniProt P51812)
Sequence of Ribosomal protein S6 kinase alpha-3 (P51812 whole entry): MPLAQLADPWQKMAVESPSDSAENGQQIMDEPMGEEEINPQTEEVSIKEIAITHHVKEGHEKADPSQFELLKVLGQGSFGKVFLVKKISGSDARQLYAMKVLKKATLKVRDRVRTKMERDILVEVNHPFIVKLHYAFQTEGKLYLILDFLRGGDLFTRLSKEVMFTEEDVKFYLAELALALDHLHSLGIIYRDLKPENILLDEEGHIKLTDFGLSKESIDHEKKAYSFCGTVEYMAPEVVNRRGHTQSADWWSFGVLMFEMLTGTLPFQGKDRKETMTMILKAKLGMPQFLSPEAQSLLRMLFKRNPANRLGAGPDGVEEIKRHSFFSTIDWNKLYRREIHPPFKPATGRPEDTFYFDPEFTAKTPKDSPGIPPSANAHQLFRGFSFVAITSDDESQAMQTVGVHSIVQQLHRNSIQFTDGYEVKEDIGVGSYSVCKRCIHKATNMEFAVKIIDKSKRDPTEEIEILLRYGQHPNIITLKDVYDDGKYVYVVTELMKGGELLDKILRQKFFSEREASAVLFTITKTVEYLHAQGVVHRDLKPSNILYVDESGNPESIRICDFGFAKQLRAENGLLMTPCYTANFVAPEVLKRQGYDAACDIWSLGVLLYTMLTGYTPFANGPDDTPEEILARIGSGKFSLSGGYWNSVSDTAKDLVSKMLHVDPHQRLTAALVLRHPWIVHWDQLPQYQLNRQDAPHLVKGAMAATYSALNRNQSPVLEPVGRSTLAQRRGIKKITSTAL
Description: Inhibition of RSK2 assessed as inhibition of substrate phosphorylation using fluorescent peptide substrate by microplate reader assay

Work on `N=C(N)N/N=C\c1c(-c2ccc([N+](=O)[O-])cc2)nc2sc(Br)cn12` yielded a GI50 [1] of 0.182 µM, a CC50 ([1]; read-out: pLC50 (the source's name) (converted)) of 6.61 µM and a TGI ([1]; read-out: pTGI (converted)) of 0.347 µM. For the same compound, the pIC50 [2] was under 4.00 and the pIC50 [3] was 5.91.
